The source of these data is ChEMBL document CHEMBL1133266, “Effects of 2-(substituted-sulfanyl)-3,5-dihydro-imidazole-4-one and 2-(substituted-sulfanyl)-1H-imidazole-4,5-dione derivatives on serum HDL-cholesterol” (2000).

The first test deals with Rattus norvegicus. Briefly: Compound was evaluated for increase of high density lipoprotein cholesterol (HDL-C) in cholesterol fed male rats after treatment for 8 days at a dose of 80 mg/kg/day; Average % HDL-C change in 6 animals. Format: functional.
The molecule `CCSC1=NCC(=O)N1c1ccc(F)cc1` had a Change of 140%.

Another test relates to Rattus norvegicus. Nature of the test: Compound was evaluated in vivo for the increase of very low density lipoprotein cholesterol (VLDL-C) in cholesterol fed male rats. Format: functional.
Consider `CCSC1=NCC(=O)N1c1ccccc1C`, for which the Increase amounted to 78%.

A further test has as its system Rattus norvegicus. Briefly: Increase of high density lipoprotein cholesterol (HDL-C) in cholesterol fed male rats after treatment for 8 days at a dose of 100 mg/kg/day; Average % HDL-C change in 6 animals. Format: functional.
On to `CCSC1=NCC(=O)N1c1c(C)cccc1Cl`, for which the Change was determined as 71%. Molecule `CCSC1=NCC(=O)N1c1cccc(Cl)c1C` yielded a Change of 26%. Molecule `CCSC1=NCC(=O)N1c1ccccc1C` had a Change of 139%. In turn, `CCSC1=NCC(=O)N1c1cc(Cl)ccc1C` displayed a Change of 153%.

As for `CCSC1=NC(=O)C(=O)N1c1ccccc1C`, the Change was determined as 48%. Molecule `CCSC1=NCC(=O)N1c1ccccc1Cl` displayed a Change of 74%. `CCSC1=NCC(=O)N1c1ccccc1` registered a Change of 89%. As to `CCSC1=NCC(=O)N1c1c(C)cccc1C`, the Change was found to be 75%. Regarding `CCSC1=NCC(=O)N1c1ccc(C)c(Cl)c1`, the Change is 45%.

As for `CCSC1=NCC(=O)N1c1c(Cl)cccc1Cl`, the Change is 169%. On the same count and under the same terms, the value for `CCSC1=NCC(=O)N1c1cc(Cl)ccc1OC` was 66%. `CCSC1=NC(=O)C(=O)N1c1cc(Cl)ccc1C` returned a Change of 85%. Take `CCSC1=NCC(=O)N1c1cc(F)ccc1C`: the Change was 32%. The molecule `CCSC1=NCC(=O)N1c1ccc(Cl)cc1C` came in with a Change of 39%. `Cc1ccc(Cl)cc1N1C(=O)CN=C1SCc1ccccc1` yielded a Change of 102%. Molecule `CCSC1=NC(C)C(=O)N1c1cc(Cl)ccc1C` (stereo not drawn) gave a Change of 211%.
